From article PMC4631615 (Bipolar disorders, 2015)
Several values for one entry are separate records, joined by “and”; a condition that tells them apart may be missing. Equal values may be shown once. Marks after values point to notes of the source that are not given here.

Assays:
pregnant SWV mice [1] = assay: Maternal body weight and weight gain, teratogenicity study; format: in vivo, mouse; settings: mean ± SD
pregnant SWV mice [2] = assay: Pregnancy outcomes; format: in vivo, mouse; settings: for Dead fetuses/litter / Fetus weight / Implantations/litter / Live fetuses/litter / Resorptions/litter: mean ± SD
SWV mouse fetuses [3] = assay: Skeletal examination of fetuses; format: in vivo
SWV mouse fetuses [4] = settings: mouse, in vivo
acyl-CoA synthetase 4 = settings: cited from earlier work
various animal models = settings: cited from earlier work
[5] = system: histone deacetylase (HDAC); settings: cited from earlier work
NMRI mice = settings: injected on GD 8 with 3 mmol/kg; cited from earlier work
mouse = settings: source not given; cited from earlier work
[6] = system: patients with bipolar disorder; settings: Phase IIb; cited from earlier work
[7] = 1/3.28 of LD50 (VCD 304.6 mg/kg) p.o. GD 4–17
[8] = 1/4.36 of LD50 (RIS 14.5, VCD 229.2 mg/kg) p.o. GD 4–17
[9] = 1/6.54 of LD50 (RIS 9.6, OLA 32.1, VCD 152.8 mg/kg) p.o. GD 4–17

CCC(C)C(CC)C(N)=O (stereo not drawn) [VCD, 2-ethyl-3-methylpentamide]
Dams net weight gain (pregnant SWV mice [1]; [7]): 8.6 ± 1.8 grams | Dams weight GD 18 (pregnant SWV mice [1]; [7]): 48.2 ± 2.9 grams | Dams weight gain (pregnant SWV mice [1]; [7]): 20.5 ± 3.5 grams | Dams net weight gain (pregnant SWV mice [1]; [8]): 7.8 ± 2.1 grams | Dams weight GD 18 (pregnant SWV mice [1]; [8]): 47.3 ± 4.2 grams | Dams weight gain (pregnant SWV mice [1]; [8]): 20.1 ± 2.9 grams | Dams net weight gain (pregnant SWV mice [1]; [9]): 7.9 ± 2.1 grams | Dams weight GD 18 (pregnant SWV mice [1]; [9]): 48.5 ± 3.4 grams | Dams weight gain (pregnant SWV mice [1]; [9]): 20.2 ± 3.0 grams | Fetuses sex ratio F/M (pregnant SWV mice [2]; [7]): 57/73 | Dead fetuses/litter (pregnant SWV mice [2]; [7]): 0.1 ± 0.2 | Fetus weight (pregnant SWV mice [2]; [7]): 0.91 ± 0.06 g | Implantations/litter (pregnant SWV mice [2]; [7]): 14.5 ± 1.7 | Live fetuses/litter (pregnant SWV mice [2]; [7]): 13.2 ± 2.8 | Resorptions/litter (pregnant SWV mice [2]; [7]): 1.2 ± 1.4 | Fetuses sex ratio F/M (pregnant SWV mice [2]; [8]): 58/77 | Dead fetuses/litter (pregnant SWV mice [2]; [8]): 0.1 ± 0.3 | Fetus weight (pregnant SWV mice [2]; [8]): 0.90 ± 0.07 g | Implantations/litter (pregnant SWV mice [2]; [8]): 14.8 ± 1.6 | Live fetuses/litter (pregnant SWV mice [2]; [8]): 13.7 ± 2.0 | Resorptions/litter (pregnant SWV mice [2]; [8]): 0.9 ± 0.8 | Fetuses sex ratio F/M (pregnant SWV mice [2]; [9]): 71/73 | Dead fetuses/litter (pregnant SWV mice [2]; [9]): 0.2 ± 0.4 | Fetus weight (pregnant SWV mice [2]; [9]): 0.91 ± 0.07 g | Implantations/litter (pregnant SWV mice [2]; [9]): 14.9 ± 1.7 | Live fetuses/litter (pregnant SWV mice [2]; [9]): 13.8 ± 2.1 | Resorptions/litter (pregnant SWV mice [2]; [9]): 1.0 ± 0.9 | All vertebra: incomplete ossification, affected fetuses (SWV mouse fetuses [3]; [7]): 0 | Cervical vertebra: ossified fusion of centrums, affected fetuses (SWV mouse fetuses [3]; [7]): 1/1 | Cervical vertebra: ossified fusion of centrums, affected litters (SWV mouse fetuses [3]; [7]): 1/1 | Fetuses with skeletal abnormalities, % (SWV mouse fetuses [3]; [7]): 8.6% | Fibula: bent, affected fetuses (SWV mouse fetuses [3]; [7]): 0 | Metacarpal: absent ossification, affected fetuses (SWV mouse fetuses [3]; [7]): 1/1 | Metacarpal: absent ossification, affected litters (SWV mouse fetuses [3]; [7]): 1/1 | Metacarpal: incomplete ossification, affected fetuses (SWV mouse fetuses [3]; [7]): 0 | Metatarsal: absent ossification, affected fetuses (SWV mouse fetuses [3]; [7]): 1/1 | Metatarsal: absent ossification, affected litters (SWV mouse fetuses [3]; [7]): 1/1 | Metatarsal: incomplete ossification, affected fetuses (SWV mouse fetuses [3]; [7]): 0 | Ribs: absent 13th, affected fetuses (SWV mouse fetuses [3]; [7]): 0 | Ribs: branched, affected fetuses (SWV mouse fetuses [3]; [7]): 0 | Skull: incomplete ossification, affected fetuses (SWV mouse fetuses [3]; [7]): 0 | Skull: interparietal incomplete ossification, affected fetuses (SWV mouse fetuses [3]; [7]): 1/1 | Skull: interparietal incomplete ossification, affected litters (SWV mouse fetuses [3]; [7]): 1/1 | Skull: parietal incomplete ossification, affected fetuses (SWV mouse fetuses [3]; [7]): 0 | Skull: supraoccipital incomplete ossification, affected fetuses (SWV mouse fetuses [3]; [7]): 0 | Sternebra: absent ossification, affected fetuses (SWV mouse fetuses [3]; [7]): 1/1 | Sternebra: absent ossification, affected litters (SWV mouse fetuses [3]; [7]): 1/1 | Sternebra: incomplete ossification, affected fetuses (SWV mouse fetuses [3]; [7]): 1/1 | Sternebra: incomplete ossification, affected litters (SWV mouse fetuses [3]; [7]): 1/1 | Sternebra: misaligned, affected fetuses (SWV mouse fetuses [3]; [7]): 0 | Sternebra: misshapen, affected fetuses (SWV mouse fetuses [3]; [7]): 3 | Sternebra: misshapen, affected litters (SWV mouse fetuses [3]; [7]): 2 | Whole skeletal system: incomplete ossification, affected fetuses (SWV mouse fetuses [3]; [7]): 0 | All vertebra: incomplete ossification, affected fetuses (SWV mouse fetuses [3]; [8]): 0 | Cervical vertebra: ossified fusion of centrums, affected fetuses (SWV mouse fetuses [3]; [8]): 0 | Fibula: bent, affected fetuses (SWV mouse fetuses [3]; [8]): 1/1 | Fibula: bent, affected litters (SWV mouse fetuses [3]; [8]): 1/1 | Metacarpal: absent ossification, affected fetuses (SWV mouse fetuses [3]; [8]): 0 | Metacarpal: incomplete ossification, affected fetuses (SWV mouse fetuses [3]; [8]): 0 | Metatarsal: absent ossification, affected fetuses (SWV mouse fetuses [3]; [8]): 0 | Metatarsal: incomplete ossification, affected fetuses (SWV mouse fetuses [3]; [8]): 0 | Ribs: absent 13th, affected fetuses (SWV mouse fetuses [3]; [8]): 3/3 | Ribs: absent 13th, affected litters (SWV mouse fetuses [3]; [8]): 3/3 | Ribs: branched, affected fetuses (SWV mouse fetuses [3]; [8]): 1/1 | Ribs: branched, affected litters (SWV mouse fetuses [3]; [8]): 1/1 | Skull: incomplete ossification, affected fetuses (SWV mouse fetuses [3]; [8]): 1/1 | Skull: incomplete ossification, affected litters (SWV mouse fetuses [3]; [8]): 1/1 | Skull: interparietal incomplete ossification, affected fetuses (SWV mouse fetuses [3]; [8]): 0 | Skull: parietal incomplete ossification, affected fetuses (SWV mouse fetuses [3]; [8]): 0 | Skull: supraoccipital incomplete ossification, affected fetuses (SWV mouse fetuses [3]; [8]): 0 | Sternebra: absent ossification, affected fetuses (SWV mouse fetuses [3]; [8]): 0 | Sternebra: incomplete ossification, affected fetuses (SWV mouse fetuses [3]; [8]): 3 | Sternebra: incomplete ossification, affected litters (SWV mouse fetuses [3]; [8]): 2 | Sternebra: misaligned, affected fetuses (SWV mouse fetuses [3]; [8]): 0 | Sternebra: misshapen, affected fetuses (SWV mouse fetuses [3]; [8]): 6 | Sternebra: misshapen, affected litters (SWV mouse fetuses [3]; [8]): 4 | All vertebra: incomplete ossification, affected fetuses (SWV mouse fetuses [3]; [9]): 0 | Cervical vertebra: ossified fusion of centrums, affected fetuses (SWV mouse fetuses [3]; [9]): 0 | Fibula: bent, affected fetuses (SWV mouse fetuses [3]; [9]): 0 | Metacarpal: absent ossification, affected fetuses (SWV mouse fetuses [3]; [9]): 0 | Metacarpal: incomplete ossification, affected fetuses (SWV mouse fetuses [3]; [9]): 0 | Metatarsal: absent ossification, affected fetuses (SWV mouse fetuses [3]; [9]): 0 | Metatarsal: incomplete ossification, affected fetuses (SWV mouse fetuses [3]; [9]): 0 | Ribs: absent 13th, affected fetuses (SWV mouse fetuses [3]; [9]): 3 | Ribs: absent 13th, affected litters (SWV mouse fetuses [3]; [9]): 1 | Ribs: branched, affected fetuses (SWV mouse fetuses [3]; [9]): 1/1 | Ribs: branched, affected litters (SWV mouse fetuses [3]; [9]): 1/1 | Skull: incomplete ossification, affected fetuses (SWV mouse fetuses [3]; [9]): 6 | Skull: incomplete ossification, affected litters (SWV mouse fetuses [3]; [9]): 2 | Skull: interparietal incomplete ossification, affected fetuses (SWV mouse fetuses [3]; [9]): 1/1 | Skull: interparietal incomplete ossification, affected litters (SWV mouse fetuses [3]; [9]): 1/1 | Skull: parietal incomplete ossification, affected fetuses (SWV mouse fetuses [3]; [9]): 0 | Skull: supraoccipital incomplete ossification, affected fetuses (SWV mouse fetuses [3]; [9]): 1/1 | Skull: supraoccipital incomplete ossification, affected litters (SWV mouse fetuses [3]; [9]): 1/1 | Sternebra: absent ossification, affected fetuses (SWV mouse fetuses [3]; [9]): 2/2 | Sternebra: absent ossification, affected litters (SWV mouse fetuses [3]; [9]): 2/2 | Sternebra: incomplete ossification, affected fetuses (SWV mouse fetuses [3]; [9]): 0 | Sternebra: misaligned, affected fetuses (SWV mouse fetuses [3]; [9]): 1/1 | Sternebra: misaligned, affected litters (SWV mouse fetuses [3]; [9]): 1/1 | Sternebra: misshapen, affected fetuses (SWV mouse fetuses [3]; [9]): 0 | Fetuses with skeletal abnormalities, % (SWV mouse fetuses [3]; mouse, in vivo): 10.4% and 11.1% | Whole skeletal system: incomplete ossification, affected fetuses (SWV mouse fetuses [3]; mouse, in vivo): 0 | Cleft palate, affected fetuses (SWV mouse fetuses [4]; female, SWV): 0 | Dilated renal pelvis, affected litters (SWV mouse fetuses [4]; female, SWV): 2/2 | Exencephaly, affected fetuses (SWV mouse fetuses [4]; female, SWV): 0 | Malposition stomach, affected litters (SWV mouse fetuses [4]; female, SWV): 1/1 | Right aortic arch, affected litters (SWV mouse fetuses [4]; female, SWV): 1/1 ^b | Overall teratogenicity under the experimental conditions (SWV mouse fetuses [4]; po): did not show any teratogenic effect | Ki, uncompetitive inhibition of acylation of arachidonic acid (acyl-CoA synthetase 4): 6.38 mM | Anticonvulsant potency relative to VPA (various animal models): 3–10 times | Inhibition of HDACs [5]: does not inhibit | Embryotoxicity (NMRI mice): did not induce any embryotoxicity | LD50 mouse, oral (mouse): 999 mg/kg | Tolerated daily dose with minimal side effects [6]: 1500 mg
